The source of these data is patent publication US20190365675A1, “COMPOSITIONS FOR THE PREVENTION AND/OR TREATMENT OF ALCOHOL USE DISORDERS” (SERVICIO ANDALUZ DE SALUD, priority 2016, published 2019).

One experiment concerns TNF-α. Kind of experiment: TNF-α mRNA and protein (ELISA) in frontal cortex and plasma after ethanol intoxication. The class given is in vivo, Wistar rats. As to conditions: OEA pre-treatment. How it is done: The animals were treated with intragastric (i.g.) ethanol 3 times a day using an i.g. cannula (16G needle, Fisher Scientific, Waltham, Mass., USA), following a protocol based on a slightly modified standard 4-day alcohol intoxication pattern (Bernier et al., 2002a, b) (FIG. 1A). The ethanol doses were administered every 8 h for a total time of 4 days. The rats treated with ethanol received an initial loading dose of 5 g/kg of ethanol in a 30% solution (w/v) and then a maximum maintenance dose of 3 g/kg, which were determined based on blood ethanol levels (BEL). This repeated standard alcohol intoxication paradigm kept BEL intoxication relatively constant in a range of sedation/ataxia (190 to 430 mg/dl, Table 3), according to the 6-point alcohol intoxication behavior scale (Majchrowicz, 1975). The mean dose of ethanol/rat/day (days 1-4) was 7.06 g/kg, similar to other studies (Obernier et al., 2002a, b). OEA (5 mg/kg, i.p., except initial dose of 10 mg/kg i.p.; synthesized as described in Giuffrida et al., 2000) was dissolved in the vehicle (5% Tween-80 in saline solution) and injected 10 minutes before each of the administrations of ethanol by an intragastric gavage. The anti-inflammatory activity of OEA at 10 mg/kg per intraperitoneal route in the frontal cortex before the injection of LPS (Sayd et al., 2014) was previously referred to. In this study, OEA is repeatedly injected as a pre-treatment before each administration of ethanol. […] The quantitative changes in mRNA levels were estimated by means of RT-PCR, carried out in the presence of the SYBR green primer using a 20-L reaction in a Rotor-Gene (Corbett Research®, Mortlake, NSW, Australia). […] The levels of soluble HMGB1, TNF-α, IL-1β and MCP-1 were determined by means of a commercially available enzyme-linked immunosorbent assay kit (ELISA) (Elabscience Biotechnology Co., Ltd., China, for HMGB-1; RayBiotech®, GA, USA, for TNF-α, IL-1β, and MCP-1). The nuclear/cytosol HMGB1 fraction was determined by means of Western blot analysis.
(ELISA stands for enzyme-linked immunosorbent assay.)

In the next experiment the test system is iNOS. Nature of the experiment: iNOS mRNA in frontal cortex after ethanol intoxication. The class given is in vivo, Wistar rats. As to conditions: OEA pre-treatment. On the procedure:
The animals were treated with intragastric (i.g.) ethanol 3 times a day using an i.g. cannula (16G needle, Fisher Scientific, Waltham, Mass., USA), following a protocol based on a slightly modified standard 4-day alcohol intoxication pattern (Bernier et al., 2002a, b) (FIG. 1A). The ethanol doses were administered every 8 h for a total time of 4 days. The rats treated with ethanol received an initial loading dose of 5 g/kg of ethanol in a 30% solution (w/v) and then a maximum maintenance dose of 3 g/kg, which were determined based on blood ethanol levels (BEL). This repeated standard alcohol intoxication paradigm kept BEL intoxication relatively constant in a range of sedation/ataxia (190 to 430 mg/dl, Table 3), according to the 6-point alcohol intoxication behavior scale (Majchrowicz, 1975). The mean dose of ethanol/rat/day (days 1-4) was 7.06 g/kg, similar to other studies (Obernier et al., 2002a, b). OEA (5 mg/kg, i.p., except initial dose of 10 mg/kg i.p.; synthesized as described in Giuffrida et al., 2000) was dissolved in the vehicle (5% Tween-80 in saline solution) and injected 10 minutes before each of the administrations of ethanol by an intragastric gavage. […] The quantitative changes in mRNA levels were estimated by means of RT-PCR, carried out in the presence of the SYBR green primer using a 20-L reaction in a Rotor-Gene (Corbett Research®, Mortlake, NSW, Australia). […]

Consider `CCCCCCCC/C=C\CCCCCCCC(=O)NCCO` [OEA, oleoylethanolamide], for which the “Ethanol-induced increase in TNF-α protein levels” value with TNF-α (frontal cortex, ELISA) was “not prevented”. For the same molecule, the “Ethanol-induced increase in TNF-α mRNA” value with TNF-α (frontal cortex) is reported as “did not prevent”. The “Increase in plasma TNF-α after ethanol intoxication” value in the experiment on TNF-α (plasma, ELISA) is given as “partially prevented”. Besides, the “Ethanol-induced increase in expression of iNOS mRNA” value in the experiment with iNOS is “entirely prevented”.
